Data from ChEMBL document CHEMBL1134890, “Preparation of oxime dual NK(1)/NK(2) antagonists with reduced NK(3) affinity” (Bioorg Med Chem Lett, 2002).

How the values were obtained:
Assay type in all cases: cell-based
Substance-P receptor = Substance-P receptor (Homo sapiens, UniProt P25103); assay: Binding affinity against recombinant human tachykinin receptor 1 in CHO cells using [3H]-Sar SP as radioligand
Neuromedin-K receptor = molecular target: T1, Neuromedin-K receptor (Homo sapiens, UniProt P29371); assay: Binding affinity against recombinant human tachykinin receptor 3 in CHO cells using [125I][MePhe]-NKB as radioligand
T1 sequence (P29371 whole entry): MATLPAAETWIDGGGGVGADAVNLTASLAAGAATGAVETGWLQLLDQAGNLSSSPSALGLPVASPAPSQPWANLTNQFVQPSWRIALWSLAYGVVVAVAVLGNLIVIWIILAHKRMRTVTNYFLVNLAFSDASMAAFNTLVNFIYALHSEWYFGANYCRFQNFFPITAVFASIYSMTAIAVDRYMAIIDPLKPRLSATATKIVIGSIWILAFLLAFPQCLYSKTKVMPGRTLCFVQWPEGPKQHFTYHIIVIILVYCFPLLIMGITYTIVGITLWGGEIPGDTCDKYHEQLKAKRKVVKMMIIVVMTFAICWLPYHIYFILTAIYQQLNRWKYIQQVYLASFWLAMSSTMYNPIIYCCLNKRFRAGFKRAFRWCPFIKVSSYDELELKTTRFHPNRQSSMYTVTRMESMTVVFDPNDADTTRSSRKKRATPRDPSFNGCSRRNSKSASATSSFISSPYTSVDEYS

Substance-K receptor = molecular target: T2, Substance-K receptor (Homo sapiens, UniProt P21452); assay: Binding affinity against recombinant human tachykinin receptor 2 in CHO cells using [3H]-NKA as radioligand
T2 sequence (P21452 whole entry): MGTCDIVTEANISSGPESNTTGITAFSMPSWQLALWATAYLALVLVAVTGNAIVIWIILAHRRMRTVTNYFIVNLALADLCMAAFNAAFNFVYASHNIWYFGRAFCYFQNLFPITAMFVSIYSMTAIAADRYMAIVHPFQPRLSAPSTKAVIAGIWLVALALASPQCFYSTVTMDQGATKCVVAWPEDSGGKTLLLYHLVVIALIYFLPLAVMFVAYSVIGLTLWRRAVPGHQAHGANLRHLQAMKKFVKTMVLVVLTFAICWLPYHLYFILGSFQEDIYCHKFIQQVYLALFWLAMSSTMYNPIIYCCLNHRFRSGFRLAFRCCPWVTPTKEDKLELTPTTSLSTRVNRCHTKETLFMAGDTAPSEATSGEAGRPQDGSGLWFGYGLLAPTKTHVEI

Sequence of Substance-P receptor (P25103 whole entry): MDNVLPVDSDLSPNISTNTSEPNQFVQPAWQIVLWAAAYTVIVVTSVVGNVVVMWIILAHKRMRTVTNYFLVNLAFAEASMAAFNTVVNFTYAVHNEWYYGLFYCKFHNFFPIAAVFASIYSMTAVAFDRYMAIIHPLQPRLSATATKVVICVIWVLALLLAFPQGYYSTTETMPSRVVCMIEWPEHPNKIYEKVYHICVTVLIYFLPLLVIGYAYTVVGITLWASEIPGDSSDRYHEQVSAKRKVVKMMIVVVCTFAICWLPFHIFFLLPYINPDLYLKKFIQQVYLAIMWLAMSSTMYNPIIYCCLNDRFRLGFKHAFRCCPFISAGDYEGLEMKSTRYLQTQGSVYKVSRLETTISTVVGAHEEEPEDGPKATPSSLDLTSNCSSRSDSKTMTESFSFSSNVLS

| SMILES | Ki (Substance-P receptor) | Ki (Neuromedin-K receptor) | Ki (Substance-K receptor) |
| --- | --- | --- | --- |
| CCN(C/C(=N\OC)[C@H](CCN1CCC(n2c(=O)n(CCOC)c3ccccc32)CC1)c1ccc(Cl)c(Cl)c1)C(=O)c1cc(Cl)cc(Cl)c1 | 2 nM | 572 nM | 4 nM |
| CCN(C/C(=N\OC)[C@H](CCN1CCC(n2c(=O)[nH]c3ccccc32)CC1)c1ccc(Cl)c(Cl)c1)C(=O)c1cc(Cl)cc(Cl)c1 | 2.5 nM | 97 nM | 2.6 nM |
| CO/N=C(\CN(C)C(=O)c1cc(Cl)cc(Cl)c1)[C@H](CCN1CCC(n2c(=O)n(C)c3ccccc32)CC1)c1ccc(Cl)c(Cl)c1 | – | 20 nM | – |
| CO/N=C(\CN(C)C(=O)c1cc(Cl)cc(Cl)c1)[C@H](CCN1CCC(N2CCCN(Cc3nnn[nH]3)C2=O)CC1)c1ccc(Cl)c(Cl)c1 | – | 2 nM | – |
| CO/N=C(\CN(C)C(=O)c1cc(Cl)cc(Cl)c1)[C@H](CCN1CCC(N2CCCN(Cc3ccoc3)C2=O)CC1)c1ccc(Cl)c(Cl)c1 | 1.1 nM | 2.2 nM | 1.1 nM |
| CCN(C/C(=N\OC)[C@H](CCN1CCC(n2c(=O)n(CC(=O)O)c3ccccc32)CC1)c1ccc(Cl)c(Cl)c1)C(=O)c1cc(Cl)cc(Cl)c1 | 2.4 nM | 176 nM | 5.2 nM |
| CO/N=C(\CN(CCF)C(=O)c1cc(Cl)cc(Cl)c1)[C@H](CCN1CCC(n2c(O)nc3ccccc32)CC1)c1ccc(Cl)c(Cl)c1 | 3.2 nM | 231 nM | 4.9 nM |
| CCN(C/C(=N\OC)[C@H](CCN1CCC(n2c(=O)n(Cc3ccccn3)c3ccccc32)CC1)c1ccc(Cl)c(Cl)c1)C(=O)c1cc(Cl)cc(Cl)c1 | 2.7 nM | 312 nM | 2.8 nM |
| CO/N=C(\CN(C(=O)c1cc(Cl)cc(Cl)c1)C1CC1)[C@H](CCN1CCC(n2c(O)nc3ccccc32)CC1)c1ccc(Cl)c(Cl)c1 | 157 nM | 103 nM | 2.5 nM |
| CO/N=C(\CN(CCF)C(=O)c1cc(Cl)cc(Cl)c1)[C@H](CCN1CCC(n2c(=O)n(CC(=O)O)c3ccccc32)CC1)c1ccc(Cl)c(Cl)c1 | 1.2 nM | 304 nM | 3.1 nM |
| CCNC(=O)Cn1c(=O)n(C2CCN(CC[C@@H](/C(CN(CC)C(=O)c3cc(Cl)cc(Cl)c3)=N/OC)c3ccc(Cl)c(Cl)c3)CC2)c2ccccc21 | 3 nM | 281 nM | 3.6 nM |
| CO/N=C(\CN(C)C(=O)c1cc(Cl)cc(Cl)c1)[C@H](CCN1CCC(N2CCCN(N3CCOCC3)C2=O)CC1)c1ccc(Cl)c(Cl)c1 | 0.8 nM | 0.5 nM | 0.9 nM |
| CO/N=C(\CN(C)C(=O)c1cc(Cl)cc(Cl)c1)[C@H](CCN1CCC(n2c(=O)[nH]c3ccccc32)CC1)c1ccc(Cl)c(Cl)c1 | – | 10 nM | – |
| CCN(C/C(=N\OC)[C@H](CCN1CCC(n2c(=O)n(CC(=O)NCCOC)c3ccccc32)CC1)c1ccc(Cl)c(Cl)c1)C(=O)c1cc(Cl)cc(Cl)c1 | 1.9 nM | 945 nM | 4.1 nM |
| CO/N=C(\CN(C)C(=O)c1cc(Cl)cc(Cl)c1)[C@H](CCN1CCC(N2CCCN(CC(=O)OCc3ccccc3)C2=O)CC1)c1ccc(Cl)c(Cl)c1 | 1 nM | 11.8 nM | 1.2 nM |
| CCOC(=O)[C@@H](Cc1ccc(O)cc1)N1CCCN(C2CCN(CC[C@@H](/C(CN(C)C(=O)c3cc(Cl)cc(Cl)c3)=N/OC)c3ccc(Cl)c(Cl)c3)CC2)C1=O | 1.6 nM | 10.9 nM | 1.2 nM |
| CCN(C/C(=N\OC)[C@H](CCN1CCC(n2c(=O)n(CC#N)c3ccccc32)CC1)c1ccc(Cl)c(Cl)c1)C(=O)c1cc(Cl)cc(Cl)c1 | 2.3 nM | 674 nM | 2.5 nM |
| CO/N=C(\CN(C)C(=O)c1cc(Cl)cc(Cl)c1)[C@H](CCN1CCC(N2CCCN(C(C)C)C2=O)CC1)c1ccc(Cl)c(Cl)c1 | 0.9 nM | 0.6 nM | 0.8 nM |
| CCN(C/C(=N\OC)[C@H](CCN1CCC(n2c(=O)n(CC(N)=O)c3ccccc32)CC1)c1ccc(Cl)c(Cl)c1)C(=O)c1cc(Cl)cc(Cl)c1 | 2.4 nM | 167 nM | 4.8 nM |
| CO/N=C(\CN(C)C(=O)c1cc(Cl)cc(Cl)c1)[C@H](CCN1CCC(N2CCCN(Cc3ccccn3)C2=O)CC1)c1ccc(Cl)c(Cl)c1 | 0.7 nM | 0.8 nM | 0.7 nM |
| CO/N=C(\CN(C)C(=O)c1cc(Cl)cc(Cl)c1)[C@H](CCN1CCC(N2CCCN(c3ccccn3)C2=O)CC1)c1ccc(Cl)c(Cl)c1 | 1.9 nM | 0.5 nM | 0.5 nM |
| CNC(=O)C[C@H]1CCCN(C2CCN(CC[C@@H](/C(CN(C)C(=O)c3cc(Cl)cc(Cl)c3)=N/OC)c3ccc(Cl)c(Cl)c3)CC2)C1=O | 1.3 nM | 0.3 nM | 0.4 nM |
| CO/N=C(\CN(C)C(=O)c1cc(Cl)cc(Cl)c1)[C@H](CCN1CCC(n2c(=O)n(CC(=O)O)c3ccccc32)CC1)c1ccc(Cl)c(Cl)c1 | 1.3 nM | 11 nM | 1.7 nM |
| CO/N=C(\CN(C)C(=O)c1cc(Cl)cc(Cl)c1)[C@H](CCN1CCC(n2c(=O)n(CC(=O)OC)c3ccccc32)CC1)c1ccc(Cl)c(Cl)c1 | 1.3 nM | 29 nM | 1.8 nM |

Results, then the compound that gave them:

| Ki (Substance-P receptor) | Ki (Neuromedin-K receptor) | Ki (Substance-K receptor) | SMILES |
| --- | --- | --- | --- |
| 0.6 nM | 0.3 nM | 0.5 nM | CO/N=C(\CN(C)C(=O)c1cc(Cl)cc(Cl)c1)[C@H](CCN1CCC(N2CCCN([C@H](CO)C(N)=O)C2=O)CC1)c1ccc(Cl)c(Cl)c1 |
| – | – | 0.8 nM | CO/N=C(\CN(C)C(=O)c1cc(Cl)cc(Cl)c1)[C@H](CCN1CCC(N2CCCN(CC(C)(C)O)C2=O)CC1)c1ccc(Cl)c(Cl)c1 |
| 0.9 nM | 1.3 nM | 1.2 nM | CNC(=O)CN1CCCN(C2CCN(CC[C@@H](/C(CN(C)C(=O)c3cc(Cl)cc(Cl)c3)=N/OC)c3ccc(Cl)c(Cl)c3)CC2)C1=O |
| 0.6 nM | 0.5 nM | 0.8 nM | CO/N=C(\CN(C)C(=O)c1cc(Cl)cc(Cl)c1)[C@H](CCN1CCC(N2CCCN(CC(=N)NO)C2=O)CC1)c1ccc(Cl)c(Cl)c1 |
| 0.8 nM | 0.3 nM | 0.4 nM | CO/N=C(\CN(C)C(=O)c1cc(Cl)cc(Cl)c1)[C@H](CCN1CCC(N2CCCN(C(C)(C)C(N)=O)C2=O)CC1)c1ccc(Cl)c(Cl)c1 |
| 0.4 nM | 0.8 nM | 0.7 nM | CO/N=C(\CN(C)C(=O)c1cc(Cl)cc(Cl)c1)[C@H](CCN1CCC(N2CCCN(C)C2=O)CC1)c1ccc(Cl)c(Cl)c1 |
| 2.4 nM | 3.2 nM | 1.2 nM | CO/N=C(\CN(C)C(=O)c1cc(Cl)cc(Cl)c1)[C@H](CCN1CCC(N2CCCN(Cc3ccsc3)C2=O)CC1)c1ccc(Cl)c(Cl)c1 |
| 1 nM | 0.7 nM | 0.7 nM | CO/N=C(\CN(C)C(=O)c1cc(Cl)cc(Cl)c1)[C@H](CCN1CCC(N2CCCN(O)C2=O)CC1)c1ccc(Cl)c(Cl)c1 |
| 0.3 nM | 0.4 nM | 0.2 nM | CO/N=C(\CN(C)C(=O)c1cc(Cl)cc(Cl)c1)[C@H](CCN1CCC(N2CCCN(CC(N)=O)C2=O)CC1)c1ccc(Cl)c(Cl)c1 |
| 0.6 nM | 0.4 nM | 0.5 nM | CO/N=C(\CN(C)C(=O)c1cc(Cl)cc(Cl)c1)[C@H](CCN1CCC(N2CCCN(CCNS(C)(=O)=O)C2=O)CC1)c1ccc(Cl)c(Cl)c1 |
